Columns and labels:
[1] = target: T1, human B2 bradykinin receptors (Homo sapiens, UniProt P30411); test: Bradykinin B2 (BK2) Receptor Binding Assay; settings: CHO-K1 membranes transfected with human B2 receptor, ~0.25 nM [3H]NPC17731, 60 min 25° C.
T1 construct: purchased Receptor Biology, Inc. (Baltimore, Md.); host or cells: CHO-K1 cells transfected with human B2 receptor (membranes)
T1 sequence (P30411 1-391): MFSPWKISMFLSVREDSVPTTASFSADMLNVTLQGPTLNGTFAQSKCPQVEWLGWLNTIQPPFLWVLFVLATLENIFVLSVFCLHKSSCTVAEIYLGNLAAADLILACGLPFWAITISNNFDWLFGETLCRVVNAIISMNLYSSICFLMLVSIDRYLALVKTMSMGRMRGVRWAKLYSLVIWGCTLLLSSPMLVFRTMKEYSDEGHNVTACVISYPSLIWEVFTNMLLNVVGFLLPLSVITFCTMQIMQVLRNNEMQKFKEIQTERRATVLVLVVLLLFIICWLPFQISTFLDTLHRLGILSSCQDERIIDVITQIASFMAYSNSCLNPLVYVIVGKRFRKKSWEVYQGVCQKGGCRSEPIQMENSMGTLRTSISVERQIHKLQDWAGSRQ
Protocol: Bradykinin B2 (BK2) Receptor Binding Assay
Cell membranes of CHO-K1 cells transfected with human B2 bradykinin receptors (CH)-hB2) were purchased from Receptor Biology, Inc. (Baltimore, Md.). 5.54 mg/mL of membrane protein suspended in 10 mM TRIS-HC pH 7.2, 2 mM EDTA, 10% sucrose.
Incubation for 60 min at 25° C. was performed in a total volume of 1 mL and contained, unless stated differently, 50 mM HEPES, pH 7.2, 5 mM MgCl2, 0.02 mg/mL 1.10-phenathroline (Sigma, P-9375), 0.25 mg/mL pefebloc SC (Boerhringer, 1429876), 30 μg/mL membrane protein and ˜0.25 nM [^3HNPC17731 (NEN, Boston). Samples were harvested on a Brandel Cell Harvester on to Wallac filtermat B sheets (96 sample format), and washed three times with 2 mL cold HEPES-buffer (10 mM, pH 7.5), and dried in a microwave oven. To each sample area 2×40 μL of Betaplate Scint scintillation fluid (LKB) was added and the radioactivity quantified on a LKB (Wallac) 1205 BetaPlate liquid scintillation counter.
The data were used to calculate either the % inhibition compared to control binding (when only a single concentration of test compound was evaluated) or a Ki value (when a range of concentrations were tested). Background was subtracted from mean cpm values and % inhibition was calculated as: [(total dpm-tpst compound dpm)/(total dpm-nonspecific dpm)]×100. Kd and Ki values were calculated using GraphPad PRISM data analysis program.

[2] = target: T2, human B2 bradykinin receptors (CHO-hB2 cell membranes) (Homo sapiens, UniProt P30411); test: [35S]GTPγS Binding Assay in CHO-hB2 Cell Membranes; format: biochemical; settings: bradykinin-stimulated [35S]GTPγS binding; for Functional Activity (% Basal): number in parentheses, concentration not given
T2 construct: purchased Receptor Biology, Inc. (Baltimore, Md.); host or cells: CHO-hB2 cells (membranes)
T2 sequence (P30411 1-391): T1 sequence (P30411 1-391)
Protocol: [^35S]GTPγS Binding Assay in CHO-hB2Cell Membranes
CHO-hB2 cell membranes were purchased from Receptor Biology, Inc. (Baltimore, Md.). 10 mg/mL of membrane protein was suspended in 10 mM TRIS-HC pH 7.2, 2 mM EDTA, 10% sucrose.
Membranes were added into 15 mL ice cold binding assay buffer. The assay buffer contained 50 mM HEPES, pH 7.6, 5 mM MgCl2, 100 mM NaCl, 1 mM DTT and 1 mM EDTA. The membrane suspension was homogenized twice with a Polytron and centrifuged at 3000 rpm for 10 min. The supernatant was then centrifuged at 18,000 rpm for 20 min. The pellet was saved in a tube and resuspended.
The pellet membranes (40 μg/mL) were preincubated with SPA (scintillation proximity assay) beads (20 mg/mL) at 25 C. ° for 45 min in the assay buffer. The SPA beads (5 mg/mL) coupled with membranes (10 μg/mL) were then incubated with 0.5 nM [^35S]GTPγS in the same HEPES buffer containing 50 μM GDP in total volume of 200 μL. Bradykinin was used to stimulate [^35S]GTPγS binding. Varying concentrations of drugs were incubated with bradykinin to inhibit bradykinin-stimulated [^35S]GTPγS binding. The basal binding was tested in the absence of bradykinin and no specific binding was tested in the present 10 μM unlabeled GTPγS. The radioactivity was quantified on a Packard Top Count, and calculated.
% of Basal=(stimulated binding−non specific binding)/(basal binding−non specific binding)×100.

[3] = system: kaolin-induced abdominal irritant response; test: Graded Abdominal Irritant Test (GrAIT); format: in vivo; settings: po; for % Inhibition: 30 minutes before kaolin 100 mg/kg i.p., dose not given; for ED50: read-out: ED50 (μmol/Kg, p.o.)
Protocol: Graded Abdominal Irritant Test The […] Abdominal Irritant Test (GrAIT) is a modification of the methods described by Koster et al. (Koster R., Anderson M and DeBeer E. J. Fed. Proc. 1959, 18, 412). Prior to the test (30 minutes for oral or subcutaneous administration), each animal was administered a known analgesic, a test compound, or vehicle (0.05N HCl) by one of two routes (oral or subcutaneous). Kaolin (100 mg/kg) was injected intraperitoneally (using a standard 23G needle) at a volume of 10 mL/kg of body weight. Following the administration of the chemical agent, the animals were placed in glass bell jars (approximately 15 cm in diameter with wood chips on the bottom). […] A contraction of the abdominal musculature and an elongation of the body, which extends through to the hindlimbs, characterize this response. The responses were counted during the 15-minute period after the injection of the kaolin. A mechanical counter or a personal computer was used to collect the number of counts per animal, and animals were observed no more than 5 at a time. The mean number of counts (±SEM) for a group of animals receiving a known analgesic or test compound was compared to the mean for the group of animals which received only vehicle pretreatment (Control group). For each dose, % inhibition of the response was calculated. For each test compound, the ED50 value was calculated using a log dose regression analysis program (PharmTools software).

| Molecule | Ki [1] | Functional Activity (word result) [2] | Functional Activity (% Basal) [2] | % Inhibition [3] | ED50 [3] |
| --- | --- | --- | --- | --- | --- |
| Cc1ccc2cccc(OCc3c(Cl)ccc(NC(=O)Cc4ccc(C(=O)c5ccc(C#N)nc5)n4C)c3Cl)c2n1 [Compound 14] | 6.76 µM |  |  |  |  |
| Cc1ccc2cccc(OCc3c(Cl)ccc(NC(=O)Cc4ccc(C(=O)c5ccc(C#N)cc5)n4C)c3Cl)c2n1 [Compound 15] | 6.17 µM | Weak antagonist |  |  |  |
| Cc1ccc2cccc(OCc3c(Cl)ccc(N(C)C(=O)Cc4ccc(C(=O)c5ccc(C#N)cc5)n4C)c3Cl)c2n1 [Compound 76] |  | Antagonist |  |  |  |
| Cc1ccc2cccc(OCc3c(C)ccc(N(C)C(=O)Cc4ccc(C(=O)c5cnccc5Cl)n4C)c3C)c2n1 [Compound 77, 2-[5-(4-Chloro-pyridine-3-carbonyl)-1-methyl-1H-pyrrol-2-yl]-N-[2,4-dimethyl-3-(2-methyl-quinolin-8-yloxymethyl)-phenyl]-N-methyl-acetamide] |  | Antagonist | 62 % Basal | 70% | 80.9 µmol/kg |
| Cc1ccc2cccc(OCc3c(C)ccc(N(C)C(=O)Cc4ccc(C(=O)c5cnccc5C#N)n4C)c3C)c2n1 [Compound 78, 2-[5-(4-Cyano-pyridine-3-carbonyl)-1-methyl-1H-pyrrol-2-yl]-N-[2,4-dimethyl-3-(2-methyl-quinolin-8-yloxymethyl)-phenyl]-N-methyl-acetamide] |  | Antagonist | 83 % Basal | 82% | 114 µmol/kg |
| Cc1ccc2cccc(OCc3c(C)ccc(N(C)C(=O)Cc4ccc(C(=O)c5ccc(C#N)cc5)n4C)c3C)c2n1 [Compound 79, 2-[5-(4-Cyano-benzoyl)-1-methyl-1H-pyrrol-2-yl]-N-[2,4-dimethyl-3-(2-methyl-quinolin-8-yloxymethyl)-phenyl]-N-methyl-acetamide] |  | Antagonist | 100 % Basal |  |  |
| Cc1ccc2cccc(OCc3c(C)ccc(N(C)C(=O)CCc4ccc(C(=O)c5cccs5)n4C)c3C)c2n1 [Compound 80] |  | Weak antagonist |  |  |  |
| Cc1ccc2cccc(OCc3c(Cl)ccc(N(C)C(=O)CCc4ccc(C(=O)c5cnccc5Cl)n4C)c3Cl)c2n1 [Compound 89, 3-[5-(4-Chloro-pyridine-3-carbonyl)-1-methyl-1H-pyrrol-2-yl]-N-[2,4-dichloro-3-(2-methyl-quinolin-8-yloxymethyl)-phenyl]-N-methyl-propionamide] |  | Antagonist | 51 % Basal | 98% | 22.5 µmol/kg |
| CC(=O)Nc1ccc(C=CC(=O)NC[C@H]2CCCN2c2ccc(C)c(COc3cccc4ccc(C)nc34)c2C)cn1 [Compound 112, 3-(6-Acetylamino-pyridin-3-yl)-N-{1-[2,4-dimethyl-3-(2-methyl-quinolin-8-yloxymethyl)-phenyl]-pyrrolidin-2-(R)-ylmethyl}-acrylamide.] |  | Antagonist | 59 % Basal |  |  |
| N-[2,4-Dimethyl-3-(2-methyl-quinolin-8-yloxymethyl)-phenyl]-3-[5-(4-methoxy-benzoyl)-1-methyl-1H-pyrrol-2-yl]-N-methyl-propionamide [Compound 106] | 0.375 µM |  |  |  |  |

More lines, main results first:

| Ki [1] | Functional Activity (word result) [2] | Molecule | Functional Activity (% Basal) [2] | % Inhibition [3] | ED50 [3] |
| --- | --- | --- | --- | --- | --- |
|  | Antagonist | Cc1ccc2cccc(OCc3c(C)ccc(N(C)C(=O)CCc4ccc(C(=O)c5ccncc5)n4C)c3C)c2n1 [Compound 82] | 50 % Basal |  |  |
|  | Antagonist | Cc1ccc2cccc(OCc3c(C)ccc(N(C)C(=O)CCc4ccc(C(=O)c5cccnc5)n4C)c3C)c2n1 [Compound 84] |  |  |  |
|  | Antagonist | Cc1ccc2cccc(OCc3c(C)ccc(N(C)C(=O)CCc4ccc(C(=O)c5ccc(Cl)nc5)n4C)c3C)c2n1 [Compound 88] |  |  |  |
|  | Antagonist | Cc1ccc2cccc(OCc3c(C)ccc(N(C)C(=O)CCc4ccc(C(=O)c5ccc(C#N)cc5)n4C)c3C)c2n1 [Compound 90] | 50 % Basal |  |  |
| 0.09 µM |  | Cc1ccc2cccc(OCc3c(C)ccc(N(C)C(=O)Cc4ccc(C(=O)c5ccccc5)s4)c3C)c2n1 [Compound 108, 2-(5-Benzoyl-thiophen-2-yl)-N-[2,4-dimethyl-3-(2-methyl-quinolin-8-yloxymethyl)-phenyl]-N-methyl-acetamide] |  |  |  |
| 7.9 µM |  | Cc1ccc2cccc(OCc3c(C)ccc(N4CCC[C@H]4CNC(=O)Cc4ccc(C(=O)c5ccc(C#N)cc5)n4C)c3C)c2n1 [Compound 113] |  |  |  |
| 0.545 µM |  | Cc1ccc2cccc(OCc3c(C)ccc(N4CCC[C@H]4CNC(=O)CCc4ccc(C(=O)c5ccc(C#N)cc5)n4C)c3C)c2n1 [Compound 114] |  |  |  |
|  | Antagonist | Cc1ccc2cccc(OCc3c(Cl)cc(Cl)c(N(C)C(=O)Cc4ccc(C(=O)c5ccc(Cl)nc5)n4C)c3Cl)c2n1 [Compound 117, 2-[5-(6-Chloro-pyridine-3-carbonyl)-1-methyl-1H-pyrrol-2-yl]-N-methyl-N-[2,4,6-trichloro-3-(2-methyl-quinolin-8-yloxymethyl)-phenyl]-acetamide] |  |  |  |
